Biological target: KRAS G12C (Homo sapiens (Human), UniProt P01116, C118A/G12C)
Assay: 2 h coupled exchange assay
Format: biochemical
Conditions: Avg 2 h Coupled exchange IC50, 2 h compound pre-incubation
Procedure: The term “2 h coupled exchange assay” or “20 h coupled exchange assay” as used herein refers to the assay described in the Section entitled “BIOLOGICAL EVALUATION.”

Sequence of KRAS G12C (P01116 other isoform, or with tags, fused parts or gaps G12C/C118A): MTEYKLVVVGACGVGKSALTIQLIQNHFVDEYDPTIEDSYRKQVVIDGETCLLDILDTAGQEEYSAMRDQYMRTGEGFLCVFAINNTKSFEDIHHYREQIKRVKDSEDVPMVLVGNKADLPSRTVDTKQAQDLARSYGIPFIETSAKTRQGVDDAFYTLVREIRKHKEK

IC50	Compound
7810 nM	C=CC(=O)N1CC2(CCN(c3nc4c(c(-c5c(C)c(C)cc6cnn(C)c56)c3C)COC(C)(C)C4)C2)C1 (single isomer, unassigned) [Example 14-42, (M)-1-(6-(3,7,7-trimethyl-4-(1,5,6-trimethyl-1H-indazol-7-yl)-7,8-dihydro-5H-pyrano[4,3-b]pyridin-2-yl)-2,6-diazaspiro[3.4]octan-2-yl)-2-propen-1-one]
644 nM	C=CC(=O)N1CC2(CCN(c3nc4cc(-c5ccnn5C)ccc4c(-c4ccccc4F)c3C)C2)C1 [Example 16-4, 1-(6-(4-(2-fluorophenyl)-3-methyl-7-(1-methyl-1H-pyrazol-5-yl)-2-quinolinyl)-2,6-diazaspiro[3,4]octan-2-yl)-2-propen-1-one]
1020 nM	C=CC(=O)N1CC2(CCN(c3nc4c(c(-c5c(C)ccc6cn[nH]c56)c3C#N)C[C@H]3C[C@@H]4C3(C)C)C2)C1 (single isomer, unassigned) [Example 14-52]
11800 nM	C=CC(=O)N1CC2(CCN(c3nc4c(c(-c5c(C)ccc6cnn(C)c56)c3F)C[C@H]3C[C@@H]4C3(C)C)C2)C1 (single isomer, unassigned) [Example 14-64]
148 nM	C=CC(=O)N1CC2(CCN(c3nc4ccccc4c(-c4c(C)c(Cl)cc5cnn(C)c45)c3C#N)C2)C1 [Example 14-90, 4-(5-chloro-1,6-dimethyl-1H-indazol-7-yl)-2-(2-(2-propenoyl)-2,6-diazaspiro[3.4]octan-6-yl)-3-quinolinecarbonitrile]
364 nM	C=CC(=O)N1CC2(CCN(c3nc4c(c(-c5c(C)ccc6cnn(C)c56)c3F)C[C@H]3C[C@@H]4C3(C)C)C2)C1 (single isomer, unassigned) [Example 14-63]
886 nM	C=CC(=O)N1CC2(CCN(c3nc4c(c(-c5cccc6cn[nH]c56)c3C#N)C[C@H]3C[C@@H]4C3(C)C)C2)C1 (single isomer, unassigned) [Example 14-28]

Same assay, conditions: Avg 2 h Coupled exchange IC50, 2 h compound pre-incubation, SOS-mediated nucleotide exchange

IC50	Compound
1420 nM	C=CC(=O)N1CC2(CCN(c3nc4c(c(-c5c(C)cccc5O)c3C#N)C[C@H]3C[C@@H]4C3)C2)C1 [Example 13-38, (1S,9S)-6-(2-hydroxy-6-methylphenyl)-4-(2-(2-propenoyl)-2,6-diazaspiro[3.4]octan-6-yl)-3-azatricyclo[7.1.1.0^2,7]undeca-2,4,6-triene-5-carbonitrile]
2020 nM	C=CC(=O)N1CC2(CCN(c3nc4c(c(-c5ccccc5F)c3C#N)CCCC4)C2)C1 [Example 2-7, 4-(2-fluorophenyl)-2-(2-(2-propenoyl)-2,6-diazaspiro[3.4]octan-6-yl)-5,6,7,8-tetrahydro-3-quinolinecarbonitrile]
791 nM	C=C(Br)C(=O)N1CC2(CCN(c3nc4c(F)cccc4c(-c4c(C)ccc5[nH]ncc45)c3C#N)C2)C1 [Example 1-51, 2-(2-(2-bromo-2-propenoyl)-2,6-diazaspiro[3.4]octan-6-yl)-8-fluoro-4-(5-methyl-1H-indazol-4-yl)-3-quinolinecarbonitrile]
9190 nM	C=CC(=O)N1CC2(CCN(c3nc4c(c(-c5c(C)ccc6cnn(C)c56)c3C#N)CO[C@H](C3CC3)C4)C2)C1 (single isomer, unassigned) [Example 13-120]
20100 nM	C=CC(=O)N1CC2(CCN(c3nc4c(c(-c5cc(O)ccc5C)c3Cl)COC(C)(C)C4)C2)C1 (single isomer, unassigned) [Example 2-80, (M)-1-(6-(3-chloro-4-(5-hydroxy-2-methylphenyl)-7,7-dimethyl-7,8-dihydro-5H-pyrano[4,3-b]pyridin-2-yl)-2,6-diazaspiro[3.4]octan-2-yl)-2-propen-1-one]
15800 nM	C=CC(=O)N1CC2(CCN(c3nc4c(c(-c5c(C)ccc6cnn(C)c56)c3C#N)C[C@H]3C[C@@H]4C3)C2)C1 (single isomer, unassigned) [Example 13-117]
20400 nM	CN(C)C/C=C/C(=O)N1CC2(CCN(c3nc4c(c(-c5cc(O)cc6ccccc56)c3C#N)CC[C@H]3C[C@@H]43)C2)C1 (racemic) [Example 13-86, (M)-(6aR,7aS)-2-(2-((2E)-4-(dimethylamino)-2-butenoyl)-2,6-diazaspiro[3.4]octan-6-yl)-4-(3-hydroxy-1-naphthalenyl)-6,6a,7,7a-tetrahydro-5H-cyclopropa[h]quinoline-3-carbonitrile and (M)-(6aS,7aR)-2-(2-((E)-4-(dimethylamino)but-2-enoyl)-2,6-diazaspiro[3.4]octan-6-yl)-4-(3-hydroxynaphthalen-1-yl)-6,6a,7,7a-tetrahydro-5H-cyclopropan[h]quinoline-3-carbonitrile]
316 nM	CN(C)C/C=C/C(=O)N1CC2(CCN(c3nc4c(c(-c5cc(O)cc6ccccc56)c3C#N)CCC3CC43)C2)C1 [Example 13-85, (6aR,7aS)-2-(2-((2E)-4-(dimethylamino)-2-butenoyl)-2,6-diazaspiro[3.4]octan-6-yl)-4-(3-hydroxy-1-naphthalenyl)-6,6a,7,7a-tetrahydro-5H-cyclopropa[h]quinoline-3-carbontirile|(6aS,7aR)-2-(2-((2E)-4-(dimethylamino)-2-butenoyl)-2,6-diazaspiro[3.4]octan-6-yl)-4-(3-hydroxy-1-naphthalenyl)-6,6a,7,7a-tetrahydro-5H-cyclopropa[h]quinoline-3-carbonitrile]
229 nM	Cc1ccc2[nH]ncc2c1-c1c(C#N)c(N2CCC3(CN(C(=O)/C=C/C(F)(F)F)C3)C2)nc2c1CCC(C)(C)C2 [Example 13-7, 7,7-dimethyl-4-(5-methyl-1H-indazol-4-yl)-2-(2-((2E)-4,4,4-trifluoro-2-butenoyl)-2,6-diazaspiro[3.4]octan-6-yl)-5,6,7,8-tetrahydro-3-quinolinecarbonitrile]
332 nM	C=CC(=O)N1CC2(CCN(c3nc4c(c(-c5c(C)ccc6cnn(C)c56)c3C#N)C[C@H]3C[C@@H]4C3(C)C)[C@@H]2CO)C1 [Example 13-61, (1R,9R)-6-(1,6-dimethyl-1H-indazol-7-yl)-4-((5S)-5-(hydroxymethyl)-2-(2-propenoyl)-2,6-diazaspiro[3.4]octan-6-yl)-10,10-dimethyl-3-azatricyclo[7.1.1.0^2,7]undeca-2,4,6-triene-5-carbonitrile]
651 nM	C=CC(=O)N1CC2(CCN(c3nc4c(c(-c5cccc(F)c5O)c3C#N)C[C@H]3C[C@@H]4C3(C)C)C2)C1 (single isomer, unassigned) [Example 2-72]
620 nM	C=CC(=O)N1CC2(CCN(c3nc4c(c(-c5c(C)ccc6cnn(C)c56)c3C#N)CO[C@@H](C)C4)C2)C1 [Example 13-142, (7)-2-(2-acryloyl-2,6-diazaspiro[3.4]octan-6-yl)-4-(1,6-dimethyl-1H-indazol-7-yl)-7-methyl-7,8-dihydro-5H-pyrano[4,3-b]pyridine-3-carbonitrile]
849 nM	C=CC(=O)N1CC2(CCN(c3nc4c(c(-c5c(C)ccc6cnn(C)c56)c3C#N)CO[C@H](C3CC3)C4)C2)C1 (single isomer, unassigned) [Example 13-121]
259 nM	C=CC(=O)N1CC2(CCN(c3nc4c(c(-c5c(C)ccc6[nH]ncc56)c3C#N)CN(C)CC4)C2)C1 [Example 13-22, 6-methyl-4-(5-methyl-1H-indazol-4-yl)-2-(2-(2-propenoyl)-2,6-diazaspiro[3.4]octan-6-yl)-5,6,7,8-tetrahydro-1,6-naphthyridine-3-carbonitrile]
435 nM	C=CC(=O)N1CC2(CCN(c3nc4c(c(-c5cc(Cl)cc6cc[nH]c56)c3C#N)COC(C)(C)C4)C2)C1 [Example 12-7, 4-(5-chloro-1H-indol-7-yl)-7,7-dimethyl-2-(2-(2-propenoyl)-2,6-diazaspiro[3.4]octan-6-yl)-7,8-dihydro-5H-pyrano[4,3-b]pyridine-3-carbonitrile]
140000 nM	C=CC(=O)N1CC2(CCN(c3nc4c(c(-c5c(C)ccc6cnn(C)c56)c3C#N)CCC4(C)C)C2)C1 (single isomer, unassigned) [Example 13-102, (P)-2-(2-acryloyl-2,6-diazaspiro[3.4]octan-6-yl)-4-(1,6-dimethyl-1H-indazol-7-yl)-7,7-dimethyl-6,7-dihydro-5H-cyclopenta[b]pyridine-3-carbonitrile]
988 nM	C=CC(=O)N1CC2(CCN(c3nc4c(c(-c5c(Cl)c(C)cc6[nH]ncc56)c3C#N)C[C@H]3C[C@@H]4C3(C)C)C2)C1 [Example 12-18, (1R,9R)-6-(5-chloro-6-methyl-1H-indazol-4-yl)-10,10-dimethyl-4-(2-(2-propenoyl)-2,6-diazaspiro[3.4]octan-6-yl)-3-azatricyclo[7.1.1.0^2,7] undeca-2,4,6-triene-5-carbonitrile]
298 nM	C=CC(=O)N1CC2(CCN(c3nc4c(c(-c5cc(O)ccc5C)c3C#N)C3CCC4C3)C2)C1 [Example 2-37, (1R,8S)-6-(5-hydroxy-2-methylphenyl)-4-(2-(2-propenoyl)-2,6-diazaspiro[3.4]octan-6-yl)-3-azatricyclo[6.2.1.0^2,7]undeca-2,4,6-triene-5-carbonitrile|(1S, 8R)-6-(5-hydroxy-2-methylphenyl)-4-(2-(2-propenoyl)-2,6-diazaspiro[3,4]octan-6-yl)-3-azatricyclo[6.2.1.0^2.7]undeca-2,4,6-triene-5-carbonitrile]
141000 nM	C=CC(=O)N1CC2(CCN(c3nc4c(c(-c5c(C)ccc6cnn(C)c56)c3C#N)COC4(C)C)C2)C1 (single isomer, unassigned) [Example 13-56, (P)-4-(1,6-dimethyl-1H-indazol-7-yl)-,7,7-dimethyl-2-(2-(2-propenoyl)-2,6-diazaspiro[3.4]octan-6-yl)-5,7-dihydrofuro[3,4-b]pyridine-3-carbonitrile]
24400 nM	C=CC(=O)N1CC2(CCN(c3nc4c(c(-c5c(C)ccc6cnn(C)c56)c3C#N)[C@H]3C[C@@H](C4)C3)C2)C1 (single isomer, unassigned) [Example 13-132]
1050 nM	C=CC(=O)N1CC2(CCN(c3nc4ccccc4c(-c4c(CC)ccc5[nH]ncc45)c3C#N)C2)C1 [Example 4, 4-(5-ethyl-1H-indazol-4-yl)-2-(2-(2-propenoyl)-2,6-diazaspiro[3.4]octan-6-yl)-3-quinolinecarbonitrile]

Reference: US20240059703A1 (AMGEN INC., priority 2021, published 2024)
